Laboratory results published in patent US8466132B2, “Substituted tetracycline compounds” (Paratek Pharmaceuticals, Inc., priority 2004, dated 2013).

Key:
Type in all cases: cell-based
Parameters in all cases: key: Compounds which showed superior inhibition of S. aureus, S. pseumoniae and E. coli are indicated by “***,”; compounds which showed very good or good inhibition of S. aureus, S. pseumoniae and E. coli are indicated by “**” or “*” respectively; compounds which showed very good or good inhibition of S. aureus, S. pseumoniae and E. coli are indicated by “**” or “*” respectively
Conditions in all cases: broth microdilution in CAMHB, 35° C., approximately 18 hour
S. pneumoniae 157E = test: In vitro minimum inhibitory concentration (MIC) assay, S. pneumoniae
Procedure: (§1) The following assay is used to determine the efficacy of the tetracycline compounds against common bacteria. 2 mg of each compound is dissolved in 100 μl of DMSO. The solution is then added to cation-adjusted Mueller Hinton broth (CAMHB), which results in a final compound concentration of 200 μg per ml. The tetracycline compound solutions are diluted to 50 μL volumes, with a test compound concentration of 0.098 μg/ml. Optical density (OD) determinations are made from fresh log-phase broth cultures of the test strains. Dilutions are made to achieve a final cell density of 1×10^6 CFU/ml. At OD=1, cell densities for different genera should be approximately:
(§2) 50 μl of the cell suspensions are added to each well of microtiter plates. The final cell density should be approximately 5×10^5 CFU/ml. These plates are incubated at 35° C. in an ambient air incubator for approximately 18 hour. The plates are read with a microplate reader and are visually inspected when necessary. The MIC is defined as the lowest concentration of the tetracycline compound that inhibits growth.
(§3) Table 3 gives the MIC (μg/mL) of selected substituted tetracycline compounds against S. aureus, S. pseuimoniae, and E. coli.

E. coli MG 1655 = test: In vitro minimum inhibitory concentration (MIC) assay, E. coli
Procedure: as §1, §2, §3

S. aureus RN450 = test: In vitro minimum inhibitory concentration (MIC) assay, S. aureus
Procedure: as §1, §2, §3

SMILES | Median MIC for S. pneumoniae 157E (S. pneumoniae 157E) | Median MIC for E. coli MG 1655 (E. coli MG 1655) | Median MIC for S. aureus RN450 (S. aureus RN450)
CN(C)c1cccc(-c2cc(N(C)C)c3c(c2O)C(=O)C2=C(O)[C@]4(O)C(=O)C(C(N)=O)=C(O)[C@H](N(C)C)[C@@H]4C[C@@H]2C3)c1 | *** | * | ***
CN(C)c1cc(C(=O)NCCN)c(O)c2c1C[C@H]1C[C@H]3[C@H](N(C)C)C(O)=C(C(N)=O)C(=O)[C@@]3(O)C(O)=C1C2=O | *** | * | *
CN(C)c1cc(-c2ncccn2)c(O)c2c1C[C@H]1C[C@H]3[C@H](N(C)C)C(O)=C(C(N)=O)C(=O)[C@@]3(O)C(O)=C1C2=O | ** | * | ***
CN(C)c1cc(-c2nccs2)c(O)c2c1C[C@H]1C[C@H]3[C@H](N(C)C)C(O)=C(C(N)=O)C(=O)[C@@]3(O)C(O)=C1C2=O | ** | * | ***
CN(C)c1cc(C#N)c(O)c2c1C[C@H]1C[C@H]3[C@H](N(C)C)C(O)=C(C(N)=O)C(=O)[C@@]3(O)C(O)=C1C2=O | *** | ** | ***
CN(C)c1cc(C(=O)NCC(C)(C)C)c(O)c2c1C[C@H]1C[C@H]3[C@H](N(C)C)C(O)=C(C(N)=O)C(=O)[C@@]3(O)C(O)=C1C2=O | ** | * | ***
CN(C)c1cc(C#N)c(O)c2c1C[C@H]1C[C@H]3[C@@H](N(C)C)C(O)=C(C(N)=O)C(=O)C3(O)C(O)=C1C2=O (stereo partly drawn) | *** | * | ***
CN(C)c1cc(C(=O)Nc2ccccc2)c(O)c2c1C[C@H]1C[C@H]3[C@H](N(C)C)C(O)=C(C(N)=O)C(=O)[C@@]3(O)C(O)=C1C2=O | *** | * | ***
CN(C)c1cc(-c2cccnc2)c(O)c2c1C[C@H]1C[C@H]3[C@H](N(C)C)C(O)=C(C(N)=O)C(=O)[C@@]3(O)C(O)=C1C2=O | ** | * | **
CN(C)c1cc(-c2cnoc2)c(O)c2c1C[C@H]1C[C@H]3[C@H](N(C)C)C(O)=C(C(N)=O)C(=O)[C@@]3(O)C(O)=C1C2=O | *** | * | ***
CN(C)c1cc(-c2ccc(C(N)=O)cc2)c(O)c2c1C[C@H]1C[C@H]3[C@H](N(C)C)C(O)=C(C(N)=O)C(=O)[C@@]3(O)C(O)=C1C2=O | ** | * | *
CCC(=O)c1cc(N(C)C)c2c(c1O)C(=O)C1=C(O)[C@]3(O)C(=O)C(C(N)=O)=C(O)[C@@H](N(C)C)[C@@H]3C[C@@H]1C2 | *** | * | ***
CN(C)c1cc(C(=O)NO)c(O)c2c1C[C@H]1C[C@H]3[C@H](N(C)C)C(O)=C(C(N)=O)C(=O)[C@@]3(O)C(O)=C1C2=O | * | * | *
COCC#Cc1cc(N(C)C)c2c(c1O)C(=O)C1=C(O)[C@]3(O)C(=O)C(C(N)=O)=C(O)[C@@H](N(C)C)[C@@H]3C[C@@H]1C2 | *** | * | ***
CN(C)c1cc(C(=O)NOC(C)(C)C)c(O)c2c1C[C@H]1C[C@H]3[C@H](N(C)C)C(O)=C(C(N)=O)C(=O)[C@@]3(O)C(O)=C1C2=O | * | * | *
COC(=O)C#Cc1cc(N(C)C)c2c(c1O)C(=O)C1=C(O)[C@]3(O)C(=O)C(C(N)=O)=C(O)[C@H](N(C)C)[C@@H]3C[C@@H]1C2 | *** | * | ***

SMILES | Median MIC for S. pneumoniae 157E (S. pneumoniae 157E) | Median MIC for E. coli MG 1655 (E. coli MG 1655) | Median MIC for S. aureus RN450 (S. aureus RN450)
CN(C)c1cc(C(=O)C(=O)O)c(O)c2c1C[C@H]1C[C@H]3[C@H](N(C)C)C(O)=C(C(N)=O)C(=O)[C@@]3(O)C(O)=C1C2=O | * | * | **
CN(C)c1cc(-c2cc[nH]n2)c(O)c2c1C[C@H]1C[C@H]3[C@H](N(C)C)C(O)=C(C(N)=O)C(=O)[C@@]3(O)C(O)=C1C2=O | ** | * | ***
CCNC(=O)c1cc(N(C)C)c2c(c1O)C(=O)C1=C(O)[C@]3(O)C(=O)C(C(N)=O)=C(O)[C@@H](N(C)C)[C@@H]3C[C@@H]1C2 | * | * | *
CC(=O)Nc1ccc(-c2cc(N(C)C)c3c(c2O)C(=O)C2=C(O)[C@]4(O)C(=O)C(C(N)=O)=C(O)[C@@H](N(C)C)[C@@H]4C[C@@H]2C3)cn1 | *** | * | ***
CN(C)c1cc(-c2ccccn2)c(O)c2c1C[C@H]1C[C@H]3[C@H](N(C)C)C(O)=C(C(N)=O)C(=O)[C@@]3(O)C(O)=C1C2=O | *** | * | ***
CN(C)c1cc(C#CC(=O)O)c(O)c2c1C[C@H]1C[C@H]3[C@@H](N(C)C)C(O)=C(C(N)=O)C(=O)[C@@]3(O)C(O)=C1C2=O | * | * | *
COCCN(C)C(=O)c1cc(N(C)C)c2c(c1O)C(=O)C1=C(O)[C@]3(O)C(=O)C(C(N)=O)=C(O)[C@@H](N(C)C)[C@@H]3C[C@@H]1C2 | * | * | *
CN(C)c1cc(-c2ccncc2)c(O)c2c1C[C@H]1C[C@H]3[C@H](N(C)C)C(O)=C(C(N)=O)C(=O)[C@@]3(O)C(O)=C1C2=O | *** | * | ***
CN(C)c1cc(-c2ccsc2)c(O)c2c1C[C@H]1C[C@H]3[C@H](N(C)C)C(O)=C(C(N)=O)C(=O)[C@@]3(O)C(O)=C1C2=O | *** | * | ***
CNC(=O)c1cc(N(C)C)c2c(c1O)C(=O)C1=C(O)[C@]3(O)C(=O)C(C(N)=O)=C(O)[C@@H](N(C)C)[C@@H]3C[C@@H]1C2 | * | * | *
CCCNC(=O)c1cc(N(C)C)c2c(c1O)C(=O)C1=C(O)[C@]3(O)C(=O)C(C(N)=O)=C(O)[C@@H](N(C)C)[C@@H]3C[C@@H]1C2 | * | * | *
CN(C)c1cc(-c2cccc(C(N)=O)c2)c(O)c2c1C[C@H]1C[C@H]3[C@H](N(C)C)C(O)=C(C(N)=O)C(=O)[C@@]3(O)C(O)=C1C2=O | ** | * | ***
CC(=O)c1cc(N(C)C)c2c(c1O)C(=O)C1=C(O)[C@]3(O)C(=O)C(C(N)=O)=C(O)[C@H](N(C)C)[C@@H]3C[C@@H]1C2 | * | * | *
CN(C)c1cc(-c2cn[nH]c2)c(O)c2c1C[C@H]1C[C@H]3[C@H](N(C)C)C(O)=C(C(N)=O)C(=O)[C@@]3(O)C(O)=C1C2=O | * | * | *
CN(C)c1cc(-c2cccc(C(=O)O)c2)c(O)c2c1C[C@H]1C[C@H]3[C@H](N(C)C)C(O)=C(C(N)=O)C(=O)[C@@]3(O)C(O)=C1C2=O | * | * | *
CN(C)c1cc(-c2ncco2)c(O)c2c1C[C@H]1C[C@H]3[C@H](N(C)C)C(O)=C(C(N)=O)C(=O)[C@@]3(O)C(O)=C1C2=O | ** | * | **
